# Measurements taken from US20230149401A1 (priority 2020, published 2023).
# Test system: HIV particles pseudotyped with SARS-CoV-2 S
# Type: cell-based
smiles,measurement,value
"CCN(CC)CCCC(C)Nc1ccnc2cc(Cl)ccc12 (stereo not shown) [chloroquine, reference compound]",Entry of pseudotyped SARS-CoV-2 and its μS1/S2 mutant,efficiently blocked entry
